In patent publication US10449183B2, “Methods for inhibiting preterm labor and uterine contractility disorders and preventing cervical ripening” (DIGNITY HEALTH, priority 2010, dated 2019):
“Also recorded” adds a separate entry of the source.

Columns and labels:
pregnant rats = assay: Time of delivery of timed-pregnant rats (hours after 8 a.m. of day 22 of gestation); type: in vivo, Sprague-Dawley rats
Excerpt: (§1) Nonpregnant and timed-pregnant Sprague-Dawley rats (200-250 g) from Charles-River Laboratories (Wilmington, Mass., USA) were delivered to animal care facilities on day 12 of gestation (day 1 being the day when a sperm plug was observed). The animals were housed separately, with free access to food and water and maintained on a constant 12-hour light-dark cycle. Control pregnant rats were spontaneously delivering on day 22 and 23 of gestation. For the measurements with the collascope the animals were anaesthetized (interperitoneal (i.p). injection) with a combination of xylazine (Gemini, Burns Veterinary Supply Inc, Rockville Center, N.Y., USA) and ketamine HCl (Ketaset; Fort Dodge Laboratories Inc, Fort Dodge, Iowa, USA). The animals were randomly allocated to one of the groups and sacrificed by carbon dioxide inhalation on day 3, 5, 7 and 10 postpartum or on day 25 of pregnancy in the groups with delayed delivery. All procedures were approved by the Animal Care and Use Committee of the St. Joseph's Hospital and Medical Center in Phoenix.
(§2) Prior to any treatment LIF measurements were made in control rats throughout pregnancy and postpartum to estimate the LIF profile during gestation (see FIG. 1). Pregnant rats (N=6/group) were treated (see FIG. 2), when not otherwise mentioned (see FIG. 3), from day 13 of pregnancy until delivery. Single daily treatments were performed at 8 a.m. and twice a day treatments at 8 a.m. and 8 p.m. All single injections (4 mg P4, 10 mg 17P, 2 mg promegestone (R5020)) were by the subcutaneous route (s.c.) in sesame oil (0.2 ml), which was also used for the controls. Vaginal gels were applied twice a day with a blunt ball-top needle deep into the vagina. Crinone was used for the P4 vaginal group (equivalent volumes of Crinone were used for 2-15 mg P4/treatment), all data presented show the results of the highest dose (total daily dose of 30 mg P4=⅓ of a applicator of 8% Crinone that contains 90 mg P4). For the vaginal promegestone (R5020) group micronized promegestone (R5020) (1 mg/treatment) was mixed into 0.18 ml of Replens. The control rats for the vaginal groups were treated with Replens (0.18 ml/treatment). For oral P4 treatments (15 mg, bid, vehicle sesame oil or H2O, volume 1 ml) gavage was used. For topical P4 treatment (15 mg, bid, P4 in 1 ml sesame oil, fish oil or in Replens) the drug was applied on the back of animals that were shaved on day 13, 17 and 21. In some animals (N=6) RU-486 (3 mg in 0.2 ml sesame oil) was injected subcutaneously once on day 16 of gestation.
Times of delivery (see also FIG. 4) of controls and various treatment groups were determined as hours after 8 a.m. of day 22 of gestation (FIG. 5). The expulsion of one pup was defined as delivery.
The cervical LIFs obtained at different times of gestation (FIG. 1) were compared using one-way analysis of variance (ANOVA) and multiple pairwise comparison procedures (Holm-Sidak). Student's t-test was used to compare the LIF results of a treatment group to its specific control group at any time in gestation and postpartum and also to determine the differences in delivery times (FIGS. 2, 3 and 5). A two-tailed probability value of P<0.05 was considered statistically significant.
FIG. 15 depicts delay of delivery times in timed pregnant rats treated with progesterone (P4) with different routes and vehicles. Treatment was started on day 13 of gestation and continued until delivery of pups or until delivery was blocked at […] (day 25) past day 22 of gestation. 8 am on day 22 is noted as hour 0 and delay is compared to control group treated only with vehicle. Treatment groups included: P4 in fish oil (vaginal, nasal, injection and topical groups), P4 in cocoa butter (rectal) and P4 in sesame oil (oral). All treatment groups received a total daily dose of 30 mg P4/day except the nasal and subcutaneous injection group which received 1 mg/day and 4 mg/day, respectively. […]

cervix of pregnant rats = assay: Cervical ripening assessed in vivo by collagen light-induced fluorescence (LIF) with the collascope; set-up: species or system Sprague-Dawley rats
Excerpt: as §1, §2
The amount of cervical collagen was evaluated in vivo (only in group subcutaneously P4, vaginal P4, subcutaneously 17P, vaginal promegestone (R5020), subcutaneously RU-486) by measurement of the auto-fluorescent properties of cross-linked collagen with a new prototype of an instrument, termed collascope (Reproductive Research Technologies, Houston, Tex., USA), as used previously with an earlier prototype.
After insertion of a small speculum into the vagina of the anesthetized animal, the optical probe of the collascope was placed on the surface of the exocervix. […] The exposure time for excitation was 100 msec. The average of 20 measurements of the detected fluorescent intensity (photon count) at 390 nm was used for each animal at any given time. Measurements of cervical light-induced fluorescence (LIF) were performed on nonpregnant animals once and in pregnant animals every other day starting at day 13 of gestation until delivery and on postpartum day 3 and/or postpartum day 5 (see FIGS. 2 and 3), and for some animals also on postpartum days 7 and 10 (see FIGS. 1 and 3).
The cervical LIFs obtained at different times of gestation (FIG. 1) were compared using one-way analysis of variance (ANOVA) and multiple pairwise comparison procedures (Holm-Sidak). […]

[1] = s.c. injection daily in sesame oil from day 13 (P4 4 mg, 17P 10 mg, R5020 2 mg)
[2] = RU-486 3 mg s.c. once on day 16

Structure (SMILES): CCCCCC(=O)O[C@]1(C(C)=O)CC[C@H]2[C@@H]3CCC4=CC(=O)CC[C@]4(C)[C@H]3CC[C@@]21C [17P, 17-alpha-hydroxyprogesterone caproate]
- effect on delivery (pregnant rats; [1]): Delivery was not changed; also recorded: does not block delivery at all; also recorded: no significant effect on delaying term delivery
- cervical LIF / cervical ripening compared with vehicle controls (cervix of pregnant rats; 17P 10 mg s.c. daily from day 13): cervix is rigid; also recorded: significantly higher (P<0.05) in the 17P treated group (until day 19 only); also recorded: delayed cervical ripening but not at term immediately preceding delivery; also recorded: only attenuated until day 19 of gestation; also recorded: partly delays ripening; also recorded: not significantly different from controls at day 21; also recorded: significant differences are only observed until day 19 of gestation

Structure (SMILES): CC#C[C@]1(O)CC[C@H]2[C@@H]3CCC4=CC(=O)CCC4=C3[C@@H](c3ccc(N(C)C)cc3)C[C@@]21C [RU-486, mifepristone]
- animals delivered after 24 hours (pregnant rats; [2]): 4 of 6
- delivery of the remaining two animals after treatment (pregnant rats; [2]): ≤ 48 h
- time of induced preterm delivery after injection (pregnant rats; [2]): 24 to 48 h
- cervical ripening / softening (cervix of pregnant rats; [2]): softened the cervix during preterm delivery; also recorded: cervical ripening occurs after 24 hours followed by preterm delivery
- cervical LIF compared with vehicle controls (cervix of pregnant rats; RU-486 3 mg s.c. once on day 16, 24 and 72 hours after treatment): significantly lower (P<0.05)
- cervical LIF compared with vehicle controls (cervix of pregnant rats; RU-486 3 mg s.c. once on day 16, 5 days after treatment): higher

Structure (SMILES): CCC(=O)[C@@]1(C)CC[C@H]2[C@@H]3CCC4=CC(=O)CCC4=C3CC[C@@]21C [promegestone (R5020), Promegestone]
- effect on delivery (pregnant rats; [1]): inhibits delivery; also recorded: completely block delivery; also recorded: prevented delivery; also recorded: completely inhibited
- effect on delivery (pregnant rats; vaginal bid from day 13 (P4 15 mg as Crinone; R5020 1 mg in Replens)): inhibits delivery; also recorded: completely blocked delivery; also recorded: prevented delivery; also recorded: completely inhibited; also recorded: delivery is blocked
- cervical LIF / cervical ripening compared with vehicle controls (cervix of pregnant rats; vaginal promegestone (R5020) 1 mg bid in Replens from day 13): cervix is rigid; also recorded: significantly higher (P<0.05) in the promegestone (R5020) treated group (until day 19 only); also recorded: delayed cervical ripening but not at term immediately preceding delivery; also recorded: only attenuated until day 19 of gestation; also recorded: not significantly different from controls; also recorded: significant differences are observed only until day 19
